{
  "source": "patent US20040142379A1",
  "about": "“Affinity fishing for ligands and proteins receptors” (Carlsberg Research Laboratory, priority 2003, published 2004)",
  "note": "“Also recorded” adds a separate entry of the source. Non-standard residues stand in square brackets, D forms with d. No end group written: not given here. Aze = O=C(O)[C@@H]1CCN1",
  "data": [
    {"test_system": "Phenylephrine Treated (Hyperthrophic) Myocytes protein mixture", "assay": "Solid phase screening of Library 1 with labeled myocyte proteins; on-bead affinity isolation and peptide mass fingerprinting of bound protein (PE-induced)", "format": "binding, neonatal Wistar rats", "conditions": "proteins bound to resin-bound Library 1 ligand, primarily present in PE-treated hypertrophied cells; LA low abundance, M transmembrane or partially embedded, MA membrane associated", "experimental": "(§1) Myocytes were prepared from 1 to 5 day old neonatal Wistar rats (University of Copenhagen) according to literature procedure described in Busk et al., 2002, Cardiovasc. Res., 56: 64-75 and plated into eight P10 culture plates at 6 million cells/plate. Cells were grown at 37° C. and 5% CO2 humidity in serum free Modified Eagle Media (MEM). After 2 days, the adherent cells were washed at room temperature with serum free MEM (2×) and fresh MEM was added. To four of the plates, 10 μM phenylephrine (PE) was also added. Cells were grown for two more days and then harvested as described below.\n(§2) Protein was extracted from myocytes prepared as described above for Example 9, using a new procedure modified from existing protocols, primarily: Arnott, et al., 1998, Anal. Biochem. 258: 1-18. The media was removed from plates and adhered cells were treated for 10 minutes with ice cold phosphate buffer (0.25 mL, 10 mM, pH 7.5, augmented with 0.15 M NaCl 60 mM Benzamidine HCl, 5 mM EDTA, 10 μg/mL E-64, 10 μg/mL Leupeptin, 10 μg/mL Pepstatin A, and 1 mM PMSF). The cells were scraped off the plates and then lysed (on ice) in a sonicator (2×) using 10 seconds off/10 seconds on cycles.\n(§3) The resulting suspension was augmented with CHAPS, DTT, and urea to a final concentration of CHAPS (1% w/v), DTT (5 mM), and urea (8 M). After 10-15 minutes on ice, the solution was centrifuged for 10 minutes at 15,000 rpm at 4° C. The supernatant was removed and protein content quantified using the NanoOrange Protein test (Molecular Probes, Eugene, Oreg.): Total protein recovered: 70.5 μg for PE-treated cells and 60 μg for basal cells.\n(§4) Fluorescent dye Oregon Green 514 (OR) (Molecular Probes) was used to label the healthy/basal cells while Rhodamine Red (RR) (Molecular Probes) was used to label the PE-treated cells. The labeling procedures were carried out according to the manufacturer's protocol. The protein solutions (0.25 mL, 50.4 μg for PE cells and 0.25 mL, 42.8 μg for basal cells) were dialyzed against a solution of 10 mM phosphate buffer, 0.15 M NaCl, pH 7.5 and then 1 M NaHCO3 (0.025 mL) added to a final pH of 8.5. 10 μL of dye in dry DMF (10 mg/mL) was added and the sample stirred at room temperature for 2 hours. The protein solution was dialyzed extensively against 10 mM phosphate buffer, 0.15 M NaCl, pH 7.5, to remove excess dye.\n(§5) Ligand library 1 (200 mg), prepared as described for Example 5, was transferred to a syringe fitted with a stop-valve and the ligand-beads were washed for 10 minutes (3×) with 10 mM phosphate buffer, pH 6.8, supplemented with 0.15 M NaCl, 1 mM Ca^2+, 1 mM Zn^2+, 1 mM Mn^2+, 1 mM Cu^2+, and 1 mM Mg^2+ (3 mL). The ligand-beads were treated with a 1% BSA solution for 30 minutes, then washed with buffer (1×). A mixture of labeled myocyte proteins, including both PE-induced protein (138 μL, 40 μg) and basal protein (167 μL, 40 μg) obtained as described above for Example 11, was prepared in 1.2 mL buffer, and added to the ligand library in the syringe. The proteins and ligand library were incubated at room temperature for 16 hours. The library was then washed with buffer for 5 minutes then with water for 3×5 minutes. The library was examined under a fluorescence microscope and brightly fluorescent red, green, and yellow beads (yellow indicative of both dyes red and green binding; the majority of the beads) were present, as well as unlabelled beads. The fluorescent beads were parted and retained for analysis.\n(§6) The fluorescent ligand library beads containing bound myocyte protein obtained as described in Example 15, were sorted using a COPAS (250) NF Bead Sorter (Union Biometrica, Somerville, Mass.). Beads emitting fluorescence of only one color contain proteins from one physical state, proteins expressed only in the PE-induced hypertrophic state (red) or proteins expressed only in the basal state (green).", "values": [
      {"molecule": "Abi-Phe-Abi-Phe-Che-Tyr", "Identified Protein(s)": "Cathepsin E; Ribosomal proteins, Actin binding protein, Amino acid; also recorded: transferase"},
      {"molecule": "Abi-Thr-Hyp-Hyp-His-?-", "Identified Protein(s)": "Phosphofructokinase; Selenium binding protein; (Serine arginine rich; also recorded: protein kinase (LA); Guanylate kinase (LA), Protein tyrosine kinase; also recorded: (LA)); Alkaline phosphatase; Symporter (M); SPTR (M); WAP-protein;; also recorded: GTP Hydrolase, Actin filament"},
      {"molecule": "Pal-Abi-Gly-Gly-Abi-His", "Identified Protein(s)": "Ribosomal protein (60s + 40s); Low density lipoprotein receptor"},
      {"molecule": "Phe-Abi-Pal-Hyp-Thr-Hyp", "Identified Protein(s)": "Zinc finger associated protein; Ribosomal proteins; Protein phosphatase and (LA)"},
      {"molecule": "Phe-Gua-Pal-Tyr-Gua-Tyr", "Identified Protein(s)": "Glucose-6-Phosphatase; Succinate dehydrogenase; ARL-interacting; also recorded: protein (M); SPTR (M), Nucleic acid binding protein"},
      {"molecule": "Pya-Gua-Abi-Asp-Abi-Tyr", "Identified Protein(s)": "SPTR (M); Ribosomal proteins (60s); (Calcium channel (M); Slo channel; also recorded: protein isoform (M); Potassium conductance calcium activated channel; also recorded: (M); Symporter (M;) NADH dehydrogenase; Malate dehydrogenase; N-; also recorded: Acetyl transferase; Mitochondrial associated protein; G-protein receptor; also recorded: used for signaling (LA, M)"}
    ]},
    {"test_system": "isoleucine tRNA synthetase", "assay": "not given", "conditions": "approved antibiotic; Merck Manual; cited from earlier work", "values": [
      {"molecule": "C/C(=C\\C(=O)OCCCCCCCCC(=O)O)C[C@@H]1OC[C@H](C[C@@H]2O[C@H]2[C@@H](C)[C@H](C)O)[C@@H](O)[C@H]1O", "note": "[Mupirocin]", "enzyme inhibition": "inhibits"}
    ]},
    {"molecular_target": "T1, Phosphomannose isomerase (Candida albicans, UniProt P34948)", "T1 sequence (P34948 1-441)": "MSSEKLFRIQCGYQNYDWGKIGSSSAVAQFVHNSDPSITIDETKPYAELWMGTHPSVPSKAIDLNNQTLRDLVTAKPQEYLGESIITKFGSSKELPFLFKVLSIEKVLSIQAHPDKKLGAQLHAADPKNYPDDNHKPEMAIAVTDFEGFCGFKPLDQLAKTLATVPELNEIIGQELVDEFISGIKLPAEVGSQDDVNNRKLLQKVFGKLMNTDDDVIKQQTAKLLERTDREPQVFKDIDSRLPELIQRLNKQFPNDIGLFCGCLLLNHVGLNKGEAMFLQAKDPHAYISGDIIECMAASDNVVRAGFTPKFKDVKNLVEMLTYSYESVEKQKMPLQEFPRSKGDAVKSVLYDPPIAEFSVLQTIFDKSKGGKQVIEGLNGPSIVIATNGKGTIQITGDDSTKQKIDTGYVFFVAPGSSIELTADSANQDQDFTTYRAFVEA", "assay": "not given", "conditions": "in Candida; Wells et al, 1996; cited from earlier work", "values": [
      {"molecule": "Nc1ccc(S(=O)(=O)Nc2ncccn2)cc1", "note": "[sulfadiazene]", "enzyme inhibition": "inhibited"}
    ]},
    {"test_system": "Myocytes", "assay": "Myocyte culture with phenylephrine (in vitro model of hypertrophy)", "format": "cell-based, neonatal Wistar rats", "conditions": "10 μM phenylephrine, grown two more days, serum free MEM", "experimental": "as §1\nUsing the procedures described above for Examples 1-5, the ligand Library 1 (containing unnatural amino acids) as described for Example 5, myocyte proteins prepared and labeled as described for Examples 9 and 11, screening as described for Example 15, sorting and identifying as described for Examples 18 to 21, digestion and protein identification as described for Examples 25-31, previously unknown, specific, differential ligand-protein binding pairs were identified for the normal (basal) myocyte protein mixtures and the phenylephrine (PE)-treated myocyte proteins screened against the ligands of Library 1. Phenylephrine was used to provide an in vitro model of hypertrophy, for example, cardiac hypertrophy (Arnott et al., 1998, Anal. Biochem., 1:1-18).", "values": [
      {"molecule": "CNC[C@H](O)c1cccc(O)c1", "note": "[PE, phenylephrine]", "cell size at time of harvest": "significantly enlarged"}
    ]},
    {"test_system": "Normal Myocytes (basal) protein mixture", "assay": "Solid phase screening of Library 1 with labeled myocyte proteins; on-bead affinity isolation and peptide mass fingerprinting of bound protein (basal)", "format": "binding, neonatal Wistar rats", "conditions": "proteins bound to resin-bound Library 1 ligand, primarily present in basal cells; LA low abundance, M transmembrane or partially embedded, MA membrane associated; parentheses = possible complexes", "experimental": "as §1, §2, §3, §4, §5, §6", "values": [
      {"molecule": "F[Aze]GHG[Aze]", "Identified Protein(s)": "Hypothetical proteins; Cysteine and tyrosine rich proteins of unknown; also recorded: function (M); (Mitochondrial ATP synthase; Ribosomal proteins (L; also recorded: series);) Serine protease; SPTR"},
      {"molecule": "Phe-Ppy-Acc-Ala-Ppy-Hpy", "Identified Protein(s)": "Hypothetical proteins; Troponin T; (Phospholipase C (MA);; also recorded: Phosphatidylcholine sterol acyl transferase)"},
      {"molecule": "Phe-Thr-Pya-Pip-Asp-His", "Identified Protein(s)": "(Sodium channel (M); Chloride channel (M)) Troponin; Ribosomal; also recorded: proteins L26; Serine hydroxy methyl transferase; Zn Finger protein (MA);; also recorded: Adherin aminotransferase (M); (Gluthathione transferase; Gluthathione; also recorded: peroxidase;)"},
      {"molecule": "Pip-Pal-Pal-Phe-Pya-Pip", "Identified Protein(s)": "Myosin light chain kinase (LA, MA); (Tyrosine phosphatase (LA, M);; also recorded: ATP Synthase component (M)) Gluthathione S-transferase; Cytochrome; also recorded: P450 (M); Ribosomal proteins (60s); SPTR (M))"},
      {"molecule": "Pya-Gua-Pip-Acc-Phe-Pip", "Identified Protein(s)": "NADH dehydrogenase; ATP binding component (M); Myosin; Histone; also recorded: associated proteins (M)"},
      {"molecule": "Pya-Hyp-Hyp-Phe-Acm-Tyr", "Identified Protein(s)": "Troponin T; Growth hormone receptor (M); Protein kinase (LA)"}
    ]}
  ]
}
